According to patent EP2949653A1, “ISOXAZOLE DERIVATIVES AS LEUKOTRIENE BIOSYNTHESIS INHIBITORS” (Banoglu, Erden, priority 2014, dated 2015):
“And” between values parts separate entries of the source, which are not always exact repeats. Equal values may be shown once. Read-outs that look alike come from different tables or passages of the source.

What was measured:
[1] = tested on: 5-LO mediated product formation; test: 5-LO mediated product formation in intact neutrophils stimulated with A23187 (cell-based); set-up: species or system human; details: for IC50: Neutrophil
Procedure: (§1) Cell based and cell-free assays carried out in biological studies, immunofluorescence microscopy analysis and zymosan-induced peritonitis in mice are performed as described hereinabove (Pegola, C. and et al., British J. Pharmacology, 2014, D01:10.1111/bph.12625). In the cell based assays (intact neutrophils or monocytes), 5-LO mediated product formation is started, after pre-incubation with test compounds (or control DMSO) for 15 min. at 37 °C, with addition of Ca-ionophore A23187 (2.5 µM) to the fresh 5 x 10^6 neutrophils or monocytes suspended in 1 ml of PGC buffer (phosphate buffered saline (PBS) solution containing 1 mg ml^-1 glucose and 1mM CaCl2, pH 7.4). After the incubation for 10 min. at 37 °C, the reaction is ended with addition of 1 ml of methanol, and 30 µL 1 N HCl, 200 ng prostaglandin B1 and 500 µL PBS are added to the mixture. In cell-free assays (isolated 5-LO and cell homogenates), human recombinant 5-LO protein or 40,000g supernatant is added to 1 ml of 5-LO reaction mixture (PBS, pH 7.4, 1 mM EDTA, 1 mM ATP), and then incubated with test compounds (or control DMSO) for 10 min. at 4°C, heated to 37 °C and 2 mM CaCl2 as well as AA at certain concentrations are added. The reaction is ended as described for the cell-based assays. Resulting 5-LO mediated products are extracted and analysed by the known method of high pressure liquid chromatography (HPLC) (Pergola, C. Proc Natl. Acad. Sci. U.S.A. 2008, 105, 19881). 5-LO mediated product formation (LTB4 and all trans isomers, and 5 (S)-hydro(pero)xy-6-trans-8, 11, 14-cis-eicosatetraenoic acid, 5-H(p)ETE) is expressed as ng per 10^6 cell. Cysteinyl-LTs have not been analyzed because that the amount of C4, D4 and E4 and LTB4 oxidation products are below the detection limit.
(§2) Compounds were tested in intact human neutrophils stimulated with 2.5 µM A23187 under cell based conditions and on purified 5-LO under cell free conditions. ^aData are given as remaining activity as a percentage of control (100%) at 10 µM or 1 µM inhibitor concentrations (means ± SE, n = 3-6).
Compound 9hj inhibited 5-LO mediated product formation with IC50 of 60 nM in human neutrophils. Neutrophils are stimulated with Ca-ionophore A23187 (2.5 µM), without the addition of exogenous arachidonic acid (AA), after pre-incubation with 9hj or vehicle (0.1 % DMSO). 100% controls correspond to 275.7 ng mL^-1 of 5-LO mediated products (Figure 1).
100% controls correspond to 328.97 ng mL^-1 of 5-LO mediated products.

[2] = target: T1, purified 5-LO (Homo sapiens, UniProt P09917); test: Purified / human recombinant 5-LO activity (cell-free); format: biochemical
T1 sequence (P09917 1-674): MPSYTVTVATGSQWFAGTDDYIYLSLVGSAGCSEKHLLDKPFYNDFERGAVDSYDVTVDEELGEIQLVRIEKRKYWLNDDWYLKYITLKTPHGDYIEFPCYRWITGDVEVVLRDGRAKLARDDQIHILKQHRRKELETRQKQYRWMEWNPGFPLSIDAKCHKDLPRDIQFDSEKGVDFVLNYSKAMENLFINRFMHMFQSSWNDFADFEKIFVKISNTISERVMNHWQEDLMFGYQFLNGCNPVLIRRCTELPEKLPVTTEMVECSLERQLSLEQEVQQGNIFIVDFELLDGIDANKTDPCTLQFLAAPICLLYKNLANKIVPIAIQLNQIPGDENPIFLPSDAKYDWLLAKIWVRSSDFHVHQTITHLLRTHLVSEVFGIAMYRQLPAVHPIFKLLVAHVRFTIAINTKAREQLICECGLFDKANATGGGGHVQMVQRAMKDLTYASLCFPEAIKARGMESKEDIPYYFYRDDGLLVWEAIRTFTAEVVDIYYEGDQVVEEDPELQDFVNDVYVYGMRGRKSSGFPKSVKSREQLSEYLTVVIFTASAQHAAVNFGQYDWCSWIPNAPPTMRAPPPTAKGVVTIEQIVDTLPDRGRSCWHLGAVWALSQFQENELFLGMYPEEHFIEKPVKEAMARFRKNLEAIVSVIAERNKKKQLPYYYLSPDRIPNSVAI
Procedure: as §1, §2
9hj was added 15 min before addition of 2 mM Ca^2+ plus 3 µM, 10 µM and 30 µM AA. 100% controls correspond to 200.35 ng mL^-1 for 3 µM AA, 514.36 ng mL^-1 for 10 µM AA and 537.73 ng mL^-1 for 30 µM AA.

IC50 ([1]; Homo sapiens, A23187 (2.5 µM), without exogenous AA, vehicle 0.1 % DMSO (Figure 1), read-out: IC50 5-LO mediated product formation in human neutrophils): 0.06 µM
IC50 ([1]; intact human neutrophils stimulated with 2.5 µM A23187, mean ± SE, n = 3-4, read-out: Inhibition of purified 5-LO activity IC50 (µM) cell based): 0.24 µM
IC50 ([2]; human recombinant 5-LO, at 3, 10 and 30 µM substrate AA (Figure 5), read-out: mean IC50 activity of isolated 5-LO): 2 µM
IC50 ([2]; purified 5-LO under cell free conditions, mean ± SE, n = 3-4, read-out: Inhibition of purified 5-LO activity IC50 (µM) cell-free): 8 µM and 8.01 µM
Compound: O=C(O)c1noc(-c2ccc(OCc3ccc4ccccc4n3)cc2)c1-c1ccc(Cl)cc1 [Compound 9hj, 4-(4-Chlorophenyl)-5-(4-(quinolin-2-ylmethoxy)phenyl)isoxazole-3-carboxylic acid]
activity at 1 µM ([1]; PMNL, remaining activity at 1 µM inhibitor, human neutrophils, 2.5 µM A23187, means ± SE, n = 3-6, read-out: 5-LO mediated product formation in intact neutrophils (PMNL) (% of control) at 1 µM): 12.1 ± 5.26%
activity at 10 µM ([1]; PMNL, remaining activity at 10 µM inhibitor, human neutrophils, 2.5 µM A23187, means ± SE, n = 3-6, read-out: 5-LO mediated product formation in intact neutrophils (PMNL) (% of control) at 10 µM): 2.73 ± 1.41%
